Source: ChEMBL document CHEMBL1153497, “Development of antitubercular compounds based on a 4-quinolylhydrazone scaffold. Further structure-activity relationship studies” (Bioorg Med Chem, 2009)
Values after ≈ are worked out from the molar mass of the structure shown. Values joined by “and” are separate entries in the source; they are usually repeats but may differ in a detail not shown here. Identical values can stand only once.

What was measured:
[1] = test system: Vero; assay: Cytotoxicity against african green monkey Vero cells after 72 hrs by MTT assay; assay type: cell-based; details: Chlorocebus sabaeus
[2] = Selectivity index, IC50 for african green monkey Vero cells to MIC for Mycobacterium tuberculosis H37Rv; assay type: functional
[3] = test system: Mycobacterium tuberculosis; assay: Antitubercular activity against Mycobacterium tuberculosis H37Rv at 6.25 ug/mL by broth microdilution method; assay type: functional
[4] = test system: Mycobacterium tuberculosis; assay: Antitubercular activity against Mycobacterium tuberculosis H37Rv by microplate alamar blue assay; assay type: functional
[5] = test system: Vero; assay: Cytotoxicity against african green monkey Vero cells at > 2.5 ug/mL after 72 hrs by MTT assay; assay type: cell-based; details: Chlorocebus sabaeus
[6] = test system: Mycobacterium tuberculosis; assay: Antitubercular activity against Mycobacterium tuberculosis isolate UC0802 by microplate alamar blue assay; assay type: functional
[7] = test system: Mycobacterium tuberculosis; assay: Antitubercular activity against Mycobacterium tuberculosis isolate UC0804 by microplate alamar blue assay; assay type: functional
[8] = test system: Mycobacterium tuberculosis; assay: Antitubercular activity against Mycobacterium tuberculosis isolate UC0803 by microplate alamar blue assay; assay type: functional
[9] = test system: Mycobacterium tuberculosis; assay: Antitubercular activity against Mycobacterium tuberculosis isolate UC0801 by microplate alamar blue assay; assay type: functional
[10] = test system: Mycobacterium tuberculosis; assay: Antitubercular activity against Mycobacterium tuberculosis H37Rv assessed as CFU treated on day 7 measured after 14 days; assay type: functional, organism-based

## COc1ccc(/C=N/Nc2cc(C)nc3cc4c(cc23)OCO4)c2ccccc12
[1]
  IC50: 0.24 µg/mL (≈ 0.623 µM)
[2]
  Selectivity Index: 0.15
[3]
  inhibition at 6.25 µg/mL: 100%
[4]
  MIC: 4 µM

## COc1ccc2c(/C=N/Nc3ccnc4cc(OC)ccc34)ccnc2c1
[3]
  inhibition at 6.25 µg/mL: 100%
[4]
  MIC: 2.2 µM

## COc1ccc2nc(C)cc(N/N=C/c3ccc4c(c3)OCO4)c2c1
[3]
  inhibition at 6.25 µg/mL: 100%
[4]
  MIC: 4.8 µM

## COc1cccc2c(N/N=C/c3ccccc3)ccnc12
[3]
  inhibition at 6.25 µg/mL: 99%
[4]
  MIC: 11.3 µM

## COc1ccc2c(N/N=C/c3ccc4ccccc4n3)cc(C)nc2c1
[1]
  IC50: 0.12 µg/mL (≈ 0.35 µM)
[2]
  Selectivity Index: 0.08
[3]
  inhibition at 6.25 µg/mL: 100%
[4]
  MIC: 4.6 µM

## COc1cccc2c(N/N=C/c3ccc4c(c3)OCO4)cc(C)nc12
[3]
  inhibition at 6.25 µg/mL: 95%

## COc1ccc(/C=N/Nc2ccnc3cc(OC)ccc23)cc1
[3]
  inhibition at 6.25 µg/mL: 100%
[4]
  MIC: 9.8 µM

## Cc1cc(N/N=C/c2ccccn2)c2cc3c(cc2n1)OCO3
[3]
  inhibition at 6.25 µg/mL: 74%

## COc1ccc2nccc(N/N=C/C3CCCCC3)c2c1
[1]
  IC50: 5.03 µg/mL (≈ 17.8 µM)
[2]
  Selectivity Index: 3.44
[3]
  inhibition at 6.25 µg/mL: 99%
[4]
  MIC: 11.1 µM

## Cc1cc(N/N=C/c2cccc(O)c2)c2cc3c(cc2n1)OCO3
[3]
  inhibition at 6.25 µg/mL: 100%

## COc1ccc(/C=N/Nc2ccnc3ccc(OC)cc23)cc1
[3]
  inhibition at 6.25 µg/mL: 100%
[4]
  MIC: 10.2 µM

## Cc1cc(N/N=C/c2ccc(F)cc2)c2cc3c(cc2n1)OCO3
[3]
  inhibition at 6.25 µg/mL: 100%
[4]
  MIC: 19.3 µM

## COc1ccc2cc(/C=N/Nc3cc(C)nc4cc5c(cc34)OCO5)ccc2c1
[3]
  inhibition at 6.25 µg/mL: 100%

## CCOc1ccc2c(N/N=C/c3ccc(OC)cc3)ccnc2c1
[3]
  inhibition at 6.25 µg/mL: 100%
[4]
  MIC: 9.7 µM

## CO[C@H]1/C=C/O[C@@]2(C)Oc3c(C)c(O)c4c(O)c(c(/C=N/N5CCN(C)CC5)c(O)c4c3C2=O)NC(=O)/C(C)=C\C=C\[C@H](C)[C@H](O)[C@@H](C)[C@@H](O)[C@@H](C)[C@H](OC(C)=O)[C@@H]1C [RIFAMPIN]
[4]
  MIC: 0.037 µM

## COc1cccc2c(N/N=C/c3cccc4ccccc34)cc(C)nc12
[3]
  inhibition at 6.25 µg/mL: 99%
[4]
  MIC: 9.3 µM

## Cc1cc(N/N=C/c2ccccc2)c2cc3c(cc2n1)OCO3
[5]
  Activity: Toxic
[6]
  MIC: 1 µg/mL (≈ 3.28 µM)
[7]
  MIC: 0.12 µg/mL (≈ 0.393 µM)
[8]
  MIC: 0.25 µg/mL (≈ 0.819 µM)
[3]
  inhibition at 6.25 µg/mL: 100%
[9]
  MIC: 0.12 µg/mL (≈ 0.393 µM)
[10]
  Activity: Dose-dependent effect
[4]
  MIC: 2.6 µM and 0.5 µg/mL

## COc1cccc2c(N/N=C/c3ccnc4ccccc34)cc(C)nc12
[3]
  inhibition at 6.25 µg/mL: 98%
[4]
  MIC: 9.1 µM

## NNC(=O)c1ccncc1 [ISONIAZID]
[6]
  MIC: 0.25 µg/mL (≈ 1.82 µM)
[7]
  MIC: 0.05 µg/mL (≈ 0.365 µM)
[8]
  MIC: 0.05 µg/mL (≈ 0.365 µM)
[9]
  MIC: 0.05 µg/mL (≈ 0.365 µM)
[4]
  MIC: 0.36 µM and 0.05 µg/mL

## Cc1cc(N/N=C/c2ccc[nH]2)c2cc3c(cc2n1)OCO3
[3]
  inhibition at 6.25 µg/mL: 100%
[4]
  MIC: 10.6 µM

## COc1ccc(/C=N/Nc2cc(C)nc3cc4c(cc23)OCO4)cc1OC
[3]
  inhibition at 6.25 µg/mL: 100%

## COc1ccc(/C=N/Nc2cc(C)nc3cc4c(cc23)OCO4)cc1
[3]
  inhibition at 6.25 µg/mL: 100%
[4]
  MIC: 9.3 µM

## COc1ccc2nccc(N/N=C/c3ccc4c(c3)OCO4)c2c1
[3]
  inhibition at 6.25 µg/mL: 100%
[4]
  MIC: 2.4 µM

## CCOc1ccc2c(N/N=C/c3ccc4c(c3)OCO4)ccnc2c1
[3]
  inhibition at 6.25 µg/mL: 48%

## COc1cccc(/C=N/Nc2cc(C)nc3cc4c(cc23)OCO4)c1
[3]
  inhibition at 6.25 µg/mL: 100%
[4]
  MIC: 9.3 µM

## COc1ccc2c(N/N=C/c3ccnc4ccccc34)cc(C)nc2c1
[3]
  inhibition at 6.25 µg/mL: 100%
[4]
  MIC: 4.6 µM

## COc1cccc2c(N/N=C/c3ccc4c(c3)OCO4)ccnc12
[3]
  inhibition at 6.25 µg/mL: 31%

## Cc1cc(N/N=C/c2ccc3c(c2)OCO3)c2cc3c(cc2n1)OCO3
[1]
  IC50: 0.22 µg/mL (≈ 0.63 µM)
[2]
  Selectivity Index: 0.14
[3]
  inhibition at 6.25 µg/mL: 100%
[4]
  MIC: 4.5 µM

## COc1ccc2ccccc2c1/C=N/Nc1cc(C)nc2cc3c(cc12)OCO3
[3]
  inhibition at 6.25 µg/mL: 100%

## COc1ccc2cc(/C=N/Nc3ccnc4cc(OC)ccc34)ccc2c1
[1]
  IC50: 0.211 µg/mL (≈ 0.59 µM)
[2]
  Selectivity Index: 1.05
[3]
  inhibition at 6.25 µg/mL: 100%
[4]
  MIC: 0.6 µM

## COc1ccc2c(N/N=C/c3ccccc3)ccnc2c1
[3]
  inhibition at 6.25 µg/mL: 100%
[4]
  MIC: 16.4 µM

## COc1cccc2c(N/N=C/c3ccc4ccccc4n3)ccnc12
[1]
  IC50: 1.68 µg/mL (≈ 5.12 µM)
[2]
  Selectivity Index: 1.08
[3]
  inhibition at 6.25 µg/mL: 99%
[4]
  MIC: 4.8 µM

## COc1ccc(/C=N/Nc2cc(C)nc3cc(OC)ccc23)cc1
[3]
  inhibition at 6.25 µg/mL: 99%
[4]
  MIC: 19.5 µM

## Cc1cc(N/N=C/c2ccc(O)cc2)c2cc3c(cc2n1)OCO3
[3]
  inhibition at 6.25 µg/mL: 100%

## C(=N\Nc1ccnc2cc3c(cc12)OCO3)/C1CCCCC1
[3]
  inhibition at 6.25 µg/mL: 74%

## COc1cccc2c(N/N=C/c3ccc4ccccc4n3)cc(C)nc12
[1]
  IC50: 3.11 µg/mL (≈ 9.08 µM)
[2]
  Selectivity Index: 1.99
[3]
  inhibition at 6.25 µg/mL: 100%
[4]
  MIC: 4.7 µM

## Cc1cc(N/N=C/c2ncc[nH]2)c2cc3c(cc2n1)OCO3
[1]
  IC50: > 100 µg/mL
[2]
  Selectivity Index: >66
[3]
  inhibition at 6.25 µg/mL: 100%
[4]
  MIC: 5.3 µg/mL

## COc1ccc2c(N/N=C/c3ccc[nH]3)ccnc2c1
[3]
  inhibition at 6.25 µg/mL: 99%
[4]
  MIC: 11.8 µM

## COc1ccc2c(N/N=C/c3ccnc4ccccc34)ccnc2c1
[3]
  inhibition at 6.25 µg/mL: 100%
[4]
  MIC: 9.5 µM

## Cc1cc(N/N=C/c2ccncc2)c2cc3c(cc2n1)OCO3
[3]
  inhibition at 6.25 µg/mL: 87%

## COc1ccc2c(N/N=C/c3ccc(N(C)C)cc3)ccnc2c1
[1]
  IC50: 0.26 µg/mL (≈ 0.811 µM)
[2]
  Selectivity Index: 0.17
[3]
  inhibition at 6.25 µg/mL: 100%
[4]
  MIC: 4.9 µM

## CCOc1ccc2c(N/N=C/c3ccc4c(c3)OCO4)cc(C)nc2c1
[3]
  inhibition at 6.25 µg/mL: 98%
[4]
  MIC: 9 µM

## COc1ccc2nc(C)cc(N/N=C/c3ccc(N(C)C)cc3)c2c1
[3]
  inhibition at 6.25 µg/mL: 100%
[4]
  MIC: 9.4 µM

## COc1ccc(/C=N/Nc2cc(C)nc3ccc(OC)cc23)cc1
[3]
  inhibition at 6.25 µg/mL: 100%
[4]
  MIC: 4.8 µM

## CCOc1ccc2c(N/N=C/c3ccc(OC)cc3)cc(C)nc2c1
[3]
  inhibition at 6.25 µg/mL: 20%

## CCOc1ccc2c(N/N=C/c3ccncc3)cc(C)nc2c1
[3]
  inhibition at 6.25 µg/mL: 78%

## CCN(CC)c1ccc(/C=N/Nc2cc(C)nc3cc4c(cc23)OCO4)cc1
[3]
  inhibition at 6.25 µg/mL: 100%
[4]
  MIC: 8.3 µM

## COc1ccc2c(N/N=C/c3ccc4c(c3)OCO4)ccnc2c1
[3]
  inhibition at 6.25 µg/mL: 100%
[4]
  MIC: 9.7 µM

## COc1ccc2c(N/N=C/c3cccc(O)c3)ccnc2c1
[1]
  IC50: 1.09 µg/mL (≈ 3.72 µM)
[2]
  Selectivity Index: 1.59
[3]
  inhibition at 6.25 µg/mL: 100%
[4]
  MIC: 2.7 µM

## COc1ccc2c(N/N=C/c3ccc4ccccc4n3)ccnc2c1
[3]
  inhibition at 6.25 µg/mL: 99%
[4]
  MIC: 9.5 µM

## COc1ccc(/C=N/Nc2ccnc3cc4c(cc23)OCO4)cc1
[3]
  inhibition at 6.25 µg/mL: 100%
[4]
  MIC: 4.8 µM

## Cc1cc(N/N=C/c2ccc3ccccc3c2)c2cc3c(cc2n1)OCO3
[3]
  inhibition at 6.25 µg/mL: 100%

## Cc1cc(N/N=C/c2ccnc3ccccc23)c2cc3c(cc2n1)OCO3
[3]
  inhibition at 6.25 µg/mL: 100%

## COc1cccc2c(N/N=C/c3cccc4ccccc34)ccnc12
[3]
  inhibition at 6.25 µg/mL: 100%

## COc1ccc2c(N/N=C/c3ccc4ccccc4c3)ccnc2c1
[1]
  IC50: 0.454 µg/mL (≈ 1.39 µM)
[2]
  Selectivity Index: 2.27
[3]
  inhibition at 6.25 µg/mL: 100%
[4]
  MIC: 0.6 µM

## CCOc1ccc2c(N/N=C/c3ccncc3)ccnc2c1
[3]
  inhibition at 6.25 µg/mL: 26%

## COc1cccc2c(N/N=C/c3ccc(N(C)C)cc3)ccnc12
[3]
  inhibition at 6.25 µg/mL: 100%
[4]
  MIC: 19.5 µM

## COc1ccc2nccc(N/N=C/c3ccc(N(C)C)cc3)c2c1
[3]
  inhibition at 6.25 µg/mL: 100%
[4]
  MIC: 19.5 µM

## Cc1cc(N/N=C/C2CCCCC2)c2cc3c(cc2n1)OCO3
[3]
  inhibition at 6.25 µg/mL: 9%

## COc1ccc2c(N/N=C/c3ccc(O)cc3)ccnc2c1
[1]
  IC50: 3.66 µg/mL (≈ 12.5 µM)
[2]
  Selectivity Index: 2.53
[3]
  inhibition at 6.25 µg/mL: 100%
[4]
  MIC: 5.3 µM
